Residues, ends and D or L forms follow the SMILES beside them. No end group written: not given here. *: point of attachment. Butyryl = CCCC(=O)*
What was measured:
[1] = test system: Erwinia amylovora PMV6076; assay: In vitro growth inhibition (MIC); type: cell-based; conditions: TSB, 25°C, 48 h, OD 600 nm (Bioscreen C), three replicates, experiment repeated twice; MIC = lowest concentration with no growth, given as range
Method: (§1) Peptide conjugates were tested for in vitro growth inhibition of the plant-pathogenic bacteria E. amylovora PMV6076, Xanthomonas arboricola pv. pruni CFBP5563, X. fragariae Xf349-9A, X. axonopodis pv. vesicatoria 2133-2, P. syringae pv. actinidiae Psa3700.1.1, and P. syringae pv. syringae EPS94 (Fig. 1, Table SA). The corresponding monomers (flg15, BP13, Pep13, PIP1, BP16, BP100, BP143, BP387, BP475, and KSL-W) were included for comparison.
(§2) The following plant-pathogenic bacterial strains were used: Erwinia amylovora PMV6076 (Institut National de la Recherche Agronomique, Angers, France), Pseudomonas syringae pv. syringae EPS94 (Institut de Tecnologia Agroalimentària, University of Girona, Spain), Xanthomonas axonopodis pv. vesicatoria 2133-2, X. axonopodis pv. vesicatoria Xav206 (Xav) (D. F. Ritchie, Department of Plant Pathology, North Carolina State University), Pseudomonas syringae pv. actinidiae Psa3700.1.1, Xanthomonas fragariae Xf349-9A (Instituto Valenciano de Investigaciones Agrarias, Valencia, Spain), and Xanthomonas arboricola pv. pruni CFBP5563 (Collection Française de Bactéries Associées aux Plantes, Angers, France). All bacteria except for X. fragariae were stored in Luria Bertani (LB) broth supplemented with glycerol (20%) and maintained at −80°C. For X. fragariae, medium B ([80]) was used instead of LB. E. amylovora, X. arboricola pv. pruni, P. syringae pv. syringae, and P. syringae pv. actinidiae were scraped from the agar medium after growing for 24 h at 25°C, and X. axonopodis pv. vesicatoria and X. fragariae, after growing for 48 h at 25°C. The cell material was suspended in sterile water to obtain a suspension of 10^8 CFU mL^−1.
(§3) Lyophilized peptides were solubilized in sterile Milli-Q water to a final concentration of 1 mM and filter-sterilized through a 0.22-μm pore filter. […] Then, 20 μL of each dilution were mixed in a microtiter plate well with 20 μL of the corresponding suspension of the bacterial indicator, 160 μL of Trypticase soy broth (TSB) (bioMérieux, France) to a total volume of 200 μL. Three replicates for each combination of strain, compound, and concentration were used. Microbial growth was determined by optical density measurement at 600 nm (Bioscreen C; Labsystem, Helsinki, Finland). Microplates were incubated at 25°C with 20 s of shaking before hourly absorbance measurement for 48 h. The experiment was repeated twice. The MIC was taken as the lowest compound concentration with no growth at the end of the experiment.

[2] = test system: Pseudomonas syringae pv. actinidiae Psa3700.1.1; assay: In vitro growth inhibition (MIC); type: cell-based; conditions: TSB, 25°C, 48 h, OD 600 nm (Bioscreen C), three replicates, experiment repeated twice; MIC given as range
Method: as §1, §2, §3

[3] = test system: Pseudomonas syringae pv. syringae EPS94; assay: In vitro growth inhibition (MIC); type: cell-based; conditions: TSB, 25°C, 48 h, OD 600 nm (Bioscreen C), three replicates, experiment repeated twice; MIC given as range
Method: as §1, §2, §3

[4] = test system: Xanthomonas arboricola pv. pruni CFBP5563; assay: In vitro growth inhibition (MIC); type: cell-based; conditions: TSB, 25°C, 48 h, OD 600 nm (Bioscreen C), three replicates, experiment repeated twice; MIC given as range
Method: as §1, §2, §3

[5] = test system: Xanthomonas fragariae Xf349-9A; assay: In vitro growth inhibition (MIC); type: cell-based; conditions: TSB, 25°C, 48 h, OD 600 nm (Bioscreen C), three replicates, experiment repeated twice; MIC given as range
Method: as §1, §2, §3

[6] = test system: Xanthomonas axonopodis pv. vesicatoria 2133-2; conditions: TSB, 25°C, 48 h, OD 600 nm (Bioscreen C), three replicates, experiment repeated twice; MIC given as range
Source text: The corresponding monomers (flg15, BP13, Pep13, PIP1, BP16, BP100, BP143, BP387, BP475, and KSL-W) were included for comparison.
as §2, §3

[7] = test system: horse erythrocytes; conditions: TRIS buffer pH 7.2, 1 h, 37°C, absorbance 540 nm, relative to melittin 100 μM, ± confidence interval (α = 0.05)
Method: The toxicity of peptide conjugates to eukaryotic cells was determined as the ability to lyse erythrocytes (Table SB).
The hemolytic activity of the compounds was evaluated by determining hemoglobin release from erythrocyte suspensions of horse blood (5% vol/vol) (Oxoid) as previously described ([45]). Blood was centrifuged at 6000g for 5 min, washed three times with TRIS buffer (10 mM TRIS, 150 mM NaCl, pH 7.2) and diluted 10 times. Compounds were solubilized in TRIS buffer at 750, 500, 300, and 100 μM and mixed with horse erythrocytes (1:1 vol/vol). The mixture was incubated with continuous shaking for 1 h at 37°C. Then, the tubes were centrifuged at 3500g for 10 min, 80-μL aliquots of the supernatant were transferred to 100-well microplates (Bioscreen) and diluted with 80 μL water, and the absorbance measured at 540 nm (Bioscreen). […] The percentage of hemolysis (H) was calculated using the equation H = 100 × ([Op − Ob]/[Om − Ob]), where Op is the density for a given compound concentration, Ob is that for the buffer, and Om is that for the melittin positive control.

[8] = test system: tobacco leaves; assay: Effect of peptide infiltration on tobacco leaves (phytotoxicity); type: in vivo
Method: Peptide conjugates were also assayed for their toxicity in tobacco leaves (Fig. 3, Table SC). After 48 h of infiltration, melittin caused a necrotic area of 0.70 and 2.17 cm in diameter at 50 and 250 μM, respectively. The monomers were not phytotoxic at those concentrations; all of them led to lesions of ≤1.2 cm at 250 μM. All peptide conjugates were also less phytotoxic than melittin, causing necrotic lesions between 0.26 and 1.67 cm in diameter at 250 μM. In particular, 15 of the 30 conjugates led to a necrotic area of <1 cm at this concentration. In general, sequences incorporating BP13 were among the most phytotoxic.
Peptide conjugates were evaluated for their effect on infiltration on tobacco leaves as described previously ([41]). Peptide solutions of 50, 150, and 250 μM were infiltrated (100 μL) into the mesophylls of fully expanded tobacco leaves. Infiltrations were carried out in a single leaf, and for each peptide and dose, at least three leaves randomly distributed in different plants were inoculated. Control infiltrations with water (negative control) or melittin (positive control) at the same molar concentration were performed. The appearance of symptoms on the leaves was followed for 48 h after infiltration and measured as lesion diameter.

[9] = 100 μL infiltrated into mesophyll, lesion diameter 48 h after infiltration, at least three leaves, ± confidence interval (α = 0.05)

Compound	MIC, Ea [1] [µM]	MIC, Psa [2] [µM]	MIC, Pss [3] [µM]	MIC, Xap [4] [µM]	MIC, Xf [5] [µM]	MIC, Xav [6] [µM]	Percent hemolysis at 50 μM [7] [%]	Percent hemolysis at 150 μM [7] [%]	Percent hemolysis at 250 μM [7] [%]	Percent hemolysis at 375 μM [7] [%]	Size of the lesions in infiltrated tobacco leaves at 50 μM [8, 9] [cm]	Size of the lesions in infiltrated tobacco leaves at 150 μM [8, 9] [cm]	Size of the lesions in infiltrated tobacco leaves at 250 μM [8, 9] [cm]	Size of the lesions in infiltrated tobacco leaves at 50 μM ([8]; in vivo) [cm]	Size of the lesions in infiltrated tobacco leaves at 150 μM ([8]; in vivo) [cm]	Size of the lesions in infiltrated tobacco leaves at 250 μM ([8]; in vivo) [cm]
FKLFKKILKVL-KKLFKKILKKL-NH2 [BP13-BP16, peptide conjugate, BP13 at N-terminus, BP16 at C-terminus]	> 50	> 50	> 50	6.2 to 12.5	6.2 to 12.5	12.5 to 25	86 ± 13.2	86 ± 1.6	87 ± 1.2	93 ± 2.3	0.52 ± 0.08	1.08 ± 0.21	1.40 ± 0.71	–	–	–
CCCC(=O)NCCCC[C@H](NC(=O)[C@@H](NC(=O)[C@H](CCCCN)NC(=O)[C@H](CCCCN)NC(=O)[C@H](Cc1ccccc1)NC(=O)[C@H](CC(C)C)NC(=O)[C@H](CCCCN)NC(=O)[C@H](CCCCN)NC(C)=O)[C@@H](C)CC)C(=O)N[C@@H](CCCCN)C(=O)N[C@@H](Cc1ccc(O)cc1)C(=O)N[C@@H](CC(C)C)C(N)=O [BP387, reference compound] (Ac-KKLFKKIK(Butyryl)KYL-NH2)	3.1 to 6.2	3.1 to 6.2	3.1 to 6.2	3.1 to 6.2	1.6 to 3.1	1.6 to 3.1	4 ± 0.9	11 ± 5	14 ± 0.5	18 ± 1	0.32 ± 0.07	0.84 ± 0.10	0.92 ± 0.01	–	–	–
KKLFKKILKKL-FKLFKKILKVL-NH2 [BP16-BP13, peptide conjugate, BP16 at N-terminus, BP13 at C-terminus]	> 50	25 to 50	12.5 to 25	6.2 to 12.5	12.5 to 25	1.6 to 3.1	100 ± 4.0	100 ± 2.3	100 ± 8.5	100 ± 2.1	0.68 ± 0.16	1.15 ± 0.28	1.52 ± 0.32	–	–	–
FKLFKKILKVL-NH2 [BP13, reference compound]	25 to 50	3.1 to 6.2	12.5 to 25	6.2 to 12.5	25 to 50	50 to 100	5 ± 0.2	13 ± 2	27 ± 3	42 ± 3	0.20 ± 0.24	0.48 ± 0.15	0.96 ± 0.19	–	–	–
VWNQPVRGFKVYE-OH [Pep13, pathogen-associated molecular pattern (PAMP) from Phytophthora sojae; plant defense elicitor monomer]	> 50	> 50	> 50	> 50	> 50	> 50	0 ± 0.6	0 ± 0.3	2 ± 0.1	0 ± 0.1	–	–	–	0 ± 0	0 ± 0	0 ± 0
KKLfKKILKYL-FKLFKKILKVL-NH2 [BP143-BP13, peptide conjugate, BP143 at N-terminus, BP13 at C-terminus]	> 50	25 to 50	> 50	12.5 to 25	6.2 to 12.5	6.2 to 12.5	100 ± 6.1	100 ± 3.6	100 ± 7.1	100 ± 7.0	0.18 ± 0.10	0.40 ± 0.14	1.14 ± 0.36	–	–	–

Reference: article PMC9238401, “Peptide Conjugates Derived from flg15, Pep13, and PIP1 That Are Active against Plant-Pathogenic Bacteria and Trigger Plant Defense Responses” (Applied and Environmental Microbiology, 2022)
